Reference: patent US20250145606A1 (Arcus Biosciences, Inc., priority 2023, published 2025)
Marks after values point to notes of the source that are not given here.

Tests used:
c-Kit = c-Kit (Homo sapiens (Human), UniProt P10721); test: Inhibition of c-Kit kinase activity (HTRF KinEASE-TK); format: biochemical; conditions: biochemical
Summary of the method: (§1)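 Phosphorylation of biotinylated TK peptide read by HTRF (665/620 nm ratio) after 120 min at rt, following 1 h enzyme–compound preincubation. ATP (2× mix): 20 μM CSF1R, 16 μM c-Kit, 40 μM PDGFRβ, 1 μM PDGFRα; MgCl2 10 mM except c-Kit 5 mM. 22-point 1:2 titration; four-parameter IC50.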

PDGFRα = PDGFRα (Homo sapiens (Human), UniProt P16234); test: Inhibition of PDGFRα kinase activity (HTRF KinEASE-TK); conditions: biochemical
Summary of the method: as §1

PDGFRβ = PDGFRβ (Homo sapiens (Human), UniProt P09619); test: Inhibition of PDGFRβ kinase activity (HTRF KinEASE-TK); conditions: biochemical
Summary of the method: as §1

FLT3 = FLT3 (Homo sapiens (Human), UniProt P36888); test: Inhibition of FLT3 kinase activity (HTRF KinEASE-TK); format: biochemical; conditions: biochemical
Summary of the method: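 FLT3 tyrosine kinase activity was measured with the HTRF KinEASE-TK kit by following phosphorylation of a biotinylated TK peptide. After the 45 min reaction, 10 μL of detection mix was added: 0.2 μM (2×) Streptavidin-XL665 and 2 μM (2×) TK-Antibody-Cryptate in detection buffer. After 60 min, TR-FRET was read on an Envision as the 665 nm/620 nm emission ratio with 320 nm excitation.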

[1] = tested on: Sprague Dawley rat hepatocytes; test: Bioactivation assessment in rat hepatocytes; format: in vitro ADME; conditions: 5 μM, 4 hours
Description: Bioactivation Assessment Procedure
Pooled male Sprague Dawley rat (BioIVT), male beagle dog (BioIVT), male cynomolgus monkey (BioIVT), and a 50-donor pool of cryopreserved human hepatocytes (BioIVT) was thawed in pre-warmed 37° C. InVitroGro™ HT media (BioIVT), centrifuged, and resuspended in the InVitroGro™ HI media (BioIVT). The number of viable cells was determined by the Trypan blue exclusion method. The cells were diluted to a concentration of two million viable cells per milliliter (viability >80%) and seeded into round-bottom 96-well plates. The test articles were dissolved in DMSO and further diluted in 50% CH3CN and InVitroGro™ HI media with final concentrations of 0.05% DMSO and 0.5% CH3CN in the incubation mixture. Incubation was performed at a final concentration of one million cells per milliliter and 5 μM test compounds with continuous shaking at 1100 rpm in a 37° C., 5/95% CO2/air incubator with 100% relative humidity. After 4 hours, the samples were quenched by addition of 3 volumes of CH3CN, vortexed for 15 minutes, and centrifuged at 4200 rpm for 15 minutes at 10° C. (Sorvall Legend XTR centrifuge, Thermo Scientific, Langenselbold, Germany). 80 μL of the resulting supernatant was transferred into a new plate and mixed with 160 μL water followed by liquid chromatography-high resolution mass spectrometry (LC-HRMS) analysis.
Structural assignments of metabolites were determined through mass spectral analysis. The level of bioactivation was estimated based on the relative peak area of bioactivation products to all identified metabolites. The following equation was used: […]
Bioactivation products included glutathione conjugates, imine methides, quinones, diols, and other relevant metabolites.

PDGFRα, sequence (P16234 24-1089): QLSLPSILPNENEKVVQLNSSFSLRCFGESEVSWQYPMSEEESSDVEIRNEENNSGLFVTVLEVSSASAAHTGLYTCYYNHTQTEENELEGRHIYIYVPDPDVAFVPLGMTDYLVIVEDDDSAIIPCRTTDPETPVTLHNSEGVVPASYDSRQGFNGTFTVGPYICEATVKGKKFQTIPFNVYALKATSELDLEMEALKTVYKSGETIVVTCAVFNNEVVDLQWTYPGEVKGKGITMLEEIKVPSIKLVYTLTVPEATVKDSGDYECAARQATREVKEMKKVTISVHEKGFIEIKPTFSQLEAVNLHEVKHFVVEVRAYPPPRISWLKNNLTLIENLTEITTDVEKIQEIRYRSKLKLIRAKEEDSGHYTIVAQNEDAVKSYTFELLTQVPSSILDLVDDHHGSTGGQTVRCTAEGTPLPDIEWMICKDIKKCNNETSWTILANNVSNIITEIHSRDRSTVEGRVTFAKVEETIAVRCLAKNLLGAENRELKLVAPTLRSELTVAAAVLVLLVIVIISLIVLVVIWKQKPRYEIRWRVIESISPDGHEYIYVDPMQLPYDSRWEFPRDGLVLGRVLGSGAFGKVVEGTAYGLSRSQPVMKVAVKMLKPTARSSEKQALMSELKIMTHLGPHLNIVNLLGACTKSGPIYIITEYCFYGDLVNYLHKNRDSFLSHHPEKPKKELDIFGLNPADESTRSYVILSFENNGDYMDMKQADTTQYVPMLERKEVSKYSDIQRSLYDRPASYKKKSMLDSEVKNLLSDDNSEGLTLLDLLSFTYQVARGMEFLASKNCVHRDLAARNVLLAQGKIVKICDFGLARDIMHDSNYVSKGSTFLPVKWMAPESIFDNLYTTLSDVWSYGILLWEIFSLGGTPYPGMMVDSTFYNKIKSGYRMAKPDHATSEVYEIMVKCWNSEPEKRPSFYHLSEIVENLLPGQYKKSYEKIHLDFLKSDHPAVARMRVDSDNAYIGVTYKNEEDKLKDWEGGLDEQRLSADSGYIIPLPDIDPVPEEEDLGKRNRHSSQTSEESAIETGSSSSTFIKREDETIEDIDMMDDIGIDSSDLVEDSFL
FLT3, sequence (P36888 27-993): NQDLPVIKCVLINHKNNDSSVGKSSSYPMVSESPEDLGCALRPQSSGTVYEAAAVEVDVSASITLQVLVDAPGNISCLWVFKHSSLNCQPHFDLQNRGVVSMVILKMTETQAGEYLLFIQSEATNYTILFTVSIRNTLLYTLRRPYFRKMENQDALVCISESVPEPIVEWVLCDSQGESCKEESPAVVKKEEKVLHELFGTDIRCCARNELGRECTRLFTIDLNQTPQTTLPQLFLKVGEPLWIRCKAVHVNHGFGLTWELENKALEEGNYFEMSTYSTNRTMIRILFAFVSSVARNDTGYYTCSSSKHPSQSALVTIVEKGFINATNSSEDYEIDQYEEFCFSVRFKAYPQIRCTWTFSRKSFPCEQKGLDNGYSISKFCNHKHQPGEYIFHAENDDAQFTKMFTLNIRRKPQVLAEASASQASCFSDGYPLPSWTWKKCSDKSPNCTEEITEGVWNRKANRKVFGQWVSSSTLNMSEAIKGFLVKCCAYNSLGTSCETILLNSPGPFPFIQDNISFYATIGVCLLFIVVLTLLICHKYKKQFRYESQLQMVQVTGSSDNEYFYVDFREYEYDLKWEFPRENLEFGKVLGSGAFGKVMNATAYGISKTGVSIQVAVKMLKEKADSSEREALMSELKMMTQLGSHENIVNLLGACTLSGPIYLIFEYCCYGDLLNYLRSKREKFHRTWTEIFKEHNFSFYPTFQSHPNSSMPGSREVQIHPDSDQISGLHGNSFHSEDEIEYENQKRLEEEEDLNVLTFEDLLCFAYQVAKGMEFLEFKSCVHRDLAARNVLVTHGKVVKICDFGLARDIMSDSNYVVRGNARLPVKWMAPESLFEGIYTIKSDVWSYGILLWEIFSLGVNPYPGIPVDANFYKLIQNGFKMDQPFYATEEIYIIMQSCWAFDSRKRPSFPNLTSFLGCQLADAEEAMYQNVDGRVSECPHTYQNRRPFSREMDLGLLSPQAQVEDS
c-Kit, sequence (P10721 26-976): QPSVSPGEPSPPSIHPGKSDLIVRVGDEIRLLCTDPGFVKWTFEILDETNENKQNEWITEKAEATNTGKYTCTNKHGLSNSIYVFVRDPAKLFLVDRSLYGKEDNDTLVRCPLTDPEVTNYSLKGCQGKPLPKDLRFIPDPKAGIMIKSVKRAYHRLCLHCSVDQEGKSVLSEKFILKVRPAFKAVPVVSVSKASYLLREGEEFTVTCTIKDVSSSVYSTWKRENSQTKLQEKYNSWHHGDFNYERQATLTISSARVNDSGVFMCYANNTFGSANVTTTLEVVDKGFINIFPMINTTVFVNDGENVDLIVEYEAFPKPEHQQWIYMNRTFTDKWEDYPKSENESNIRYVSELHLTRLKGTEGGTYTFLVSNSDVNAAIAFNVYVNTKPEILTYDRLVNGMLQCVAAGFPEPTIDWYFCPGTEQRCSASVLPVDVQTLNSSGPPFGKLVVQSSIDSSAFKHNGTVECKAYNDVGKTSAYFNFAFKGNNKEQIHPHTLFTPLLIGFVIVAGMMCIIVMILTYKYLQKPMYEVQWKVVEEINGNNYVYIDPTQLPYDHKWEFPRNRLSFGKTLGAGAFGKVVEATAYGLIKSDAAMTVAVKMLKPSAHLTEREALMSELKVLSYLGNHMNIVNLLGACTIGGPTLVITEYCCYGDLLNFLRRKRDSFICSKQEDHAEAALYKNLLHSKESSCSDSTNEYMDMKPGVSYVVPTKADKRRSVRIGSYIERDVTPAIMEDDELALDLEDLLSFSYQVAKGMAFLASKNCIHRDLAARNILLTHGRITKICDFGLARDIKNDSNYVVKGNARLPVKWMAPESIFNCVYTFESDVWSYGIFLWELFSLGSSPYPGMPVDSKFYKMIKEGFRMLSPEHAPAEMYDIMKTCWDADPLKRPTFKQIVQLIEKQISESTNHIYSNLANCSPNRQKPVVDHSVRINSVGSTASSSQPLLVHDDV
PDGFRβ, sequence (P09619 33-1106): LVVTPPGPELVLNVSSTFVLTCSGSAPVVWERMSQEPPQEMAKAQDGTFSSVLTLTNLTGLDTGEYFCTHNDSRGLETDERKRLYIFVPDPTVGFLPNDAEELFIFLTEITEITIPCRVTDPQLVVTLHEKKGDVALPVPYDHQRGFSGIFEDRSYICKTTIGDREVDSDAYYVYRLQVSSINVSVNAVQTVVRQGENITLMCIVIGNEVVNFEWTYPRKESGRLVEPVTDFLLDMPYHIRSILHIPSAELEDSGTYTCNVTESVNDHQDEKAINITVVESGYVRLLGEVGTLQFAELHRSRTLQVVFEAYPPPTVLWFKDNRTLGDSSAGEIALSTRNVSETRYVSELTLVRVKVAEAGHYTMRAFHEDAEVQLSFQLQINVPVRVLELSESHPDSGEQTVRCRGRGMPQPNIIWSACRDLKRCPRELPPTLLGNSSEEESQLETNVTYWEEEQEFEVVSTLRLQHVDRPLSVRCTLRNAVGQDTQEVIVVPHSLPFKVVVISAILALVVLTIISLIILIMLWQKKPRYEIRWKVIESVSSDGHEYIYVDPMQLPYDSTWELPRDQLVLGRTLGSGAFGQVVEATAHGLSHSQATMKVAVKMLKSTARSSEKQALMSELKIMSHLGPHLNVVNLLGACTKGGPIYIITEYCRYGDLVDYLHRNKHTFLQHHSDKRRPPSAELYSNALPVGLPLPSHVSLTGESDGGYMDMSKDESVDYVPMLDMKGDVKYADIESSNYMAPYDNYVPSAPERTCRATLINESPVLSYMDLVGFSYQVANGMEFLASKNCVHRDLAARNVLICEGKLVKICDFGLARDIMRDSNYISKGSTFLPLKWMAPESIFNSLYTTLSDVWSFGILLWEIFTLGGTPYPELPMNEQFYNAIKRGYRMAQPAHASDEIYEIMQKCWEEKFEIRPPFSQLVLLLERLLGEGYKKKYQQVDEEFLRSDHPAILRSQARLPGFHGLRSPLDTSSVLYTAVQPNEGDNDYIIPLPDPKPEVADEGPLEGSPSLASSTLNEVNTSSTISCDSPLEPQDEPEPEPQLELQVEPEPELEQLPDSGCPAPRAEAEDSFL

| Percent of total metabolism via bioactivation, Rat hepatocytes [1] | IC50 (c-Kit; HTRF KinEASE-TK) [nM] | IC50 (PDGFRα; HTRF KinEASE-TK) [nM] | IC50 (PDGFRβ; HTRF KinEASE-TK) [nM] | IC50 (FLT3; HTRF KinEASE-TK) [nM] | SMILES | IC50 (c-Kit) [nM] | IC50 (PDGFRα) [nM] | IC50 (PDGFRβ) [nM] | IC50 (FLT3) [nM] |
| --- | --- | --- | --- | --- | --- | --- | --- | --- | --- |
| 2% | < 100 | > 1000 | > 1000 | > 1000 | Cc1ncc(C(=O)Nc2cc(C(=O)Nc3ccc(OC(F)F)cn3)c(F)cc2C)s1 [Example 38, N-[5-[[5-(difluoromethoxy)pyridin-2-yl]carbamoyl]-4-fluoro-2-methylphenyl]-2-methyl-1,3-thiazole-5-carboxamide] |  |  |  |  |
| 80% | < 100 | > 1000 | > 1000 | > 1000 | Cc1ncc(C(=O)Nc2cc(C(=O)Nc3ccc(CC(F)(F)F)cn3)c(F)cc2Cl)s1 [Example 46, N-[2-chloro-4-fluoro-5-[[5-(2,2,2-trifluoroethyl)pyridin-2-yl]carbamoyl]phenyl]-2-methyl-1,3-thiazole-5-carboxamide] |  |  |  |  |
| <1%^a |  |  |  |  | Cc1ncc(C(=O)Nc2cc(C(=O)Nc3cnc(OCC(C)(F)F)cn3)c(F)cc2C)s1 [Example 4, N-[5-[[5-(2,2-Difluoropropoxy)pyrazin-2-yl]carbamoyl]-4-fluoro-2-methylphenyl]-2-methyl-1,3-thiazole-5-carboxamide] | < 100 | > 1000 | > 1000 | > 1000 |
| 1-2%ª |  |  |  |  | Cc1ncc(C(=O)Nc2cc(C(=O)Nc3ccc(OC4CC4)cn3)c(F)cc2C)s1 [Example 2, N-[5-[(5-Cyclopropyloxypyridin-2-yl)carbamoyl]-4-fluoro-2-methylphenyl]-2-methyl-1,3-thiazole-5-carboxamide] | < 100 | > 1000 | > 1000 | > 1000 |

| SMILES | Percent of total metabolism via bioactivation, Rat hepatocytes [1] | IC50 (c-Kit; HTRF KinEASE-TK) [nM] | IC50 (PDGFRα; HTRF KinEASE-TK) [nM] | IC50 (PDGFRβ; HTRF KinEASE-TK) [nM] | IC50 (FLT3; HTRF KinEASE-TK) [nM] | IC50 (c-Kit) [nM] | IC50 (PDGFRα) [nM] | IC50 (PDGFRβ) [nM] | IC50 (FLT3) [nM] |
| --- | --- | --- | --- | --- | --- | --- | --- | --- | --- |
| Cc1ncc(C(=O)Nc2cc(C(=O)Nc3ccc(CC4CC4)cn3)c(F)cc2C)s1 [Example 5, N-[5-[[5-(Cyclopropylmethyl)pyridin-2-yl]carbamoyl]-4-fluoro-2-methylphenyl]-2-methyl-1,3-thiazole-5-carboxamide] | <1% |  |  |  |  | < 100 | > 1000 | > 1000 | > 1000 |
| Cc1ncc(C(=O)Nc2cc(C(=O)Nc3ccc(C4CC4)cn3)c(F)cc2C)s1 [Example 3, N-[5-[(5-Cyclopropylpyridin-2-yl)carbamoyl]-4-fluoro-2-methylphenyl]-2-methyl-1,3-thiazole-5-carboxamide] | <0.1% |  |  |  |  | < 100 | > 1000 | > 1000 | > 1000 |
| Cc1ncc(C(=O)Nc2cc(C(=O)Nc3ccc(CC(F)(F)F)cn3)c(F)cc2C)s1 [Example 1, N-[4-Fluoro-2-methyl-5-[[5-(2,2,2-trifluoroethyl)pyridin-2-yl]carbamoyl]phenyl]-2-methyl-1,3-thiazole-5-carboxamide] | 3-7%^b |  |  |  |  | < 100 | > 1000 | > 1000 | > 1000 |
